The target in the experiment is recombinant CaMKIIδ (Homo sapiens (Human), UniProt Q13557). The experiment in a line: CaMKIIδ biochemical assay (HTRF). The settings on record: 10 pM CaMKIIδ, 110 nM calmodulin, 12 μM ATP, 1 hour; read-out: CAMKIID-HTRF-384V2 (IC50 - nM). The procedure: CaMKIIδ Biochemical Assay
The biochemical activity of recombinant CaMKIIδ was measured by monitoring the phosphorylation of a target peptide using Homogenous Time Resolved Fluorescence (HTRF) technology from CisBio Bioassays.
For orientation: IC50 means the midpoint of a concentration-inhibition curve. Regarding `CC[C@@H](CNC(=O)c1cc(-c2cnn3ccc(-c4cccs4)nc23)nc(N2CC[C@H]2C(=O)NC)c1)N(CC)CC` (single isomer, unassigned) [Example 356A], the IC50 was 0.31 nM.

With `CC[C@H](CNC(=O)c1cc(-c2cnn3ccc(-c4cccs4)nc23)nc(N2CC[C@H]2C(=O)NC)c1)N(CC)CC` (single isomer, unassigned) [Example 356B], the IC50 came out at 3.04 nM.

For the molecule `NCC1CC(F)(F)CN1C(=O)c1ccnc(-c2cnn3ccc(-c4cccs4)nc23)c1` (stereo in doubt) [Example 78, (S)-(2-(aminomethyl)-4,4-difluoropyrrolidin-1-yl)(2-(5-(thiophen-2-yl)pyrazolo[1,5-a]pyrimidin-3-yl)pyridin-4-yl)methanone], the IC50 was 9.44 nM.

On to `CCN(CC)[C@@H](C)CNC(=O)c1cc(-c2cnn3ccc(-c4cccs4)nc23)nc(N2CCC(C#N)C2)c1` (stereo in doubt) [Example 313, 2-((S)-3-cyanopyrrolidin-1-yl)-N—((S)-2-(diethylamino)propyl)-6-(5-(thiophen-2-yl)pyrazolo[1,5-a]pyrimidin-3-yl)isonicotinamide], for which the IC50 was 0.18 nM.

Take `COC1CN(c2cc(C(=O)N3C4CC[C@@H]3CCNC4)cc(-c3cnn4ccc(-c5ccccc5)nc34)n2)C1` (stereo in doubt) [Example 330, (-3,9-diazabicyclo[4.2.1]nonan-9-yl)(2-(3-methoxyazetidin-1-yl)-6-(5-phenylpyrazolo[1,5-a]pyrimidin-3-yl)pyridin-4-yl)methanone]: the IC50 worked out at 44.6 nM.

As to `O=C(NCC12CCCN1CCC2)c1ccnc(-c2cnn3ccc(-c4cccs4)nc23)c1` [Example 3, N-((hexahydro-1H-pyrrolizin-7a-yl)methyl)-2-(5-(thiophen-2-yl)pyrazolo[1,5-a]pyrimidin-3-yl)isonicotinamide], the IC50 was 5.55 nM.

On to `O=C(NC[C@@H]1C[C@H](F)CN1)c1ccnc(-c2cnn3ccc(-c4cccs4)nc23)c1` [Example 5, N-(((2S,4S)-4-fluoropyrrolidin-2-yl)methyl)-2-(5-(thiophen-2-yl)pyrazolo[1,5-a]pyrimidin-3-yl)isonicotinamide], for which the IC50 turned out to be 12.7 nM.

For `O=C(NC[C@@H]1CCN1)c1ccnc(-c2cnn3ccc(-c4cccs4)nc23)c1` [Example 7, (S)—N-(azetidin-2-ylmethyl)-2-(5-(thiophen-2-yl)pyrazolo[1,5-a]pyrimidin-3-yl)isonicotinamide], the IC50 stood at 6.05 nM.

Turning to `O=C(NC[C@H]1CCN1)c1ccnc(-c2cnn3ccc(-c4cccs4)nc23)c1` [Example 8, (R)—N-(azetidin-2-ylmethyl)-2-(5-(thiophen-2-yl)pyrazolo[1,5-a]pyrimidin-3-yl)isonicotinamide], the IC50 was 10 nM.

`CN(C)CCNC(=O)c1ccnc(-c2cnn3ccc(-c4cccs4)nc23)c1` [Example 9, N-(2-(dimethylamino)ethyl)-2-(5-(thiophen-2-yl)pyrazolo[1,5-a]pyrimidin-3-yl)isonicotinamide]: the IC50 is 26 nM.

Turning to `CCC[C@@]1(CNC(=O)c2ccnc(-c3cnn4ccc(-c5cccs5)nc34)c2)CCCN1` [Example 10, (S)—N-((2-propylpyrrolidin-2-yl)methyl)-2-(5-(thiophen-2-yl)pyrazolo[1,5-a]pyrimidin-3-yl)isonicotinamide], the IC50 amounted to 9.8 nM.

With `CC[C@@]1(CNC(=O)c2ccnc(-c3cnn4ccc(-c5cccs5)nc34)c2)CCCN1` [Example 11, (S)—N-((2-ethylpyrrolidin-2-yl)methyl)-2-(5-(thiophen-2-yl)pyrazolo[1,5-a]pyrimidin-3-yl)isonicotinamide], the IC50 was 10.7 nM.

`C[C@@]1(CNC(=O)c2ccnc(-c3cnn4ccc(-c5cccs5)nc34)c2)CCCN1` [Example 12, (S)—N-((2-methylpyrrolidin-2-yl)methyl)-2-(5-(thiophen-2-yl)pyrazolo[1,5-a]pyrimidin-3-yl)isonicotinamide]: the IC50 turned out to be 14.9 nM.

As for `C[C@@H](NC(=O)c1ccnc(-c2cnn3ccc(-c4cccs4)nc23)c1)[C@@H]1CCCN1` [Example 13, N—((R)-1-((S)-pyrrolidin-2-yl)ethyl)-2-(5-(thiophen-2-yl)pyrazolo[1,5-a]pyrimidin-3-yl)isonicotinamide], the IC50 is 153 nM.

As for `C[C@@H](CNC(=O)c1ccnc(-c2cnn3ccc(-c4cccs4)nc23)c1)NCC(F)F` [Example 14, (S)—N-(2-((2,2-difluoroethyl)amino)propyl)-2-(5-(thiophen-2-yl)pyrazolo[1,5-a]pyrimidin-3-yl)isonicotinamide], the IC50 came to 23.8 nM.

On to `CCN(CC(F)F)[C@@H](C)CNC(=O)c1ccnc(-c2cnn3ccc(-c4cccs4)nc23)c1` [Example 15, (S)—N-(2-((2,2-difluoroethyl)(ethyl)amino)propyl)-2-(5-(thiophen-2-yl)pyrazolo[1,5-a]pyrimidin-3-yl)isonicotinamide], for which the IC50 worked out at 8.34 nM.

For the molecule `O=C(NCC1CCCCCN1)c1ccnc(-c2cnn3ccc(-c4cccs4)nc23)c1` (stereo not drawn) [Example 16, N-(azepan-2-ylmethyl)-2-(5-(thiophen-2-yl)pyrazolo[1,5-a]pyrimidin-3-yl)isonicotinamide], the IC50 was 60 nM.

On to `CC(C)C[C@@]1(CNC(=O)c2ccnc(-c3cnn4ccc(-c5cccs5)nc34)c2)CCCN1` [Example 17, (R)—N-((2-isobutylpyrrolidin-2-yl)methyl)-2-(5-(thiophen-2-yl)pyrazolo[1,5-a]pyrimidin-3-yl)isonicotinamide], for which the IC50 turned out to be 7.47 nM.

As to `O=C(NC[C@]1(CC2CC2)CCCN1)c1ccnc(-c2cnn3ccc(-c4cccs4)nc23)c1` [Example 18, (R)—N-((2-(cyclopropylmethyl)pyrrolidin-2-yl)methyl)-2-(5-(thiophen-2-yl)pyrazolo[1,5-a]pyrimidin-3-yl)isonicotinamide], the IC50 is 6.51 nM.

Turning to `O=C(NCC1CCCCN1)c1ccnc(-c2cnn3ccc(-c4cccs4)nc23)c1` (stereo not drawn) [Example 19, N-(piperidin-2-ylmethyl)-2-(5-(thiophen-2-yl)pyrazolo[1,5-a]pyrimidin-3-yl)isonicotinamide], the concentration for half-maximal inhibition (IC50) amounted to 89.3 nM.

On to `CCN[C@@H](C)CNC(=O)c1ccnc(-c2cnn3ccc(-c4cccs4)nc23)c1` [Example 20, (S)—N-(2-(ethylamino)propyl)-2-(5-(thiophen-2-yl)pyrazolo[1,5-a]pyrimidin-3-yl)isonicotinamide], for which the IC50 is 4.97 nM.

Take `C[C@@H](CNC(=O)c1ccnc(-c2cnn3ccc(-c4cccs4)nc23)c1)NCCO` [Example 21, (S)—N-(2-((2-hydroxyethyl)amino)propyl)-2-(5-(thiophen-2-yl)pyrazolo[1,5-a]pyrimidin-3-yl)isonicotinamide]: the IC50 was 27.8 nM.

In the case of `C[C@H](N)CNC(=O)c1ccnc(-c2cnn3ccc(-c4cccs4)nc23)c1` [Example 22, (S)—N-(2-aminopropyl)-2-(5-(thiophen-2-yl)pyrazolo[1,5-a]pyrimidin-3-yl)isonicotinamide], the IC50 was 13.9 nM.

`CCCN[C@@H](C)CNC(=O)c1ccnc(-c2cnn3ccc(-c4cccs4)nc23)c1` [Example 23, (S)—N-(2-(propylamino)propyl)-2-(5-(thiophen-2-yl)pyrazolo[1,5-a]pyrimidin-3-yl)isonicotinamide]: the IC50 was found to be 14.6 nM.

Consider `C[C@@H](CNC(=O)c1ccnc(-c2cnn3ccc(-c4cccs4)nc23)c1)NCCF` [Example 24, (S)—N-(2-((2-fluoroethyl)amino)propyl)-2-(5-(thiophen-2-yl)pyrazolo[1,5-a]pyrimidin-3-yl)isonicotinamide], for which the IC50 was determined as 7.88 nM.

As for `C[C@@H](CNC(=O)c1ccnc(-c2cnn3ccc(-c4cccs4)nc23)c1)NCC1CC1` [Example 26, (S)—N-(2-((cyclopropylmethyl)amino)propyl)-2-(5-(thiophen-2-yl)pyrazolo[1,5-a]pyrimidin-3-yl)isonicotinamide], the IC50 came to 10.7 nM.

With `C[C@@H](CNC(=O)c1ccnc(-c2cnn3ccc(-c4cccs4)nc23)c1)NCC(F)F` [Example 27, (S)—N-(2-((2,2-difluoroethyl)amino)propyl)-2-(5-(thiophen-2-yl)pyrazolo[1,5-a]pyrimidin-3-yl)isonicotinamide], the IC50 turned out to be 18.4 nM.

`C[C@@H](CNC(=O)c1ccnc(-c2cnn3ccc(-c4cccs4)nc23)c1)NCC(F)(F)F` [Example 28, (S)-2-(5-(thiophen-2-yl)pyrazolo[1,5-a]pyrimidin-3-yl)-N-(2-((2,2,2-trifluoroethyl)amino)propyl)isonicotinamide]: the IC50 is 53.4 nM.

In the case of `CCN[C@H](CC)CNC(=O)c1ccnc(-c2cnn3ccc(-c4cccs4)nc23)c1` [Example 29, (R)—N-(2-(ethylamino)butyl)-2-(5-(thiophen-2-yl)pyrazolo[1,5-a]pyrimidin-3-yl)isonicotinamide], the IC50 turned out to be 7.72 nM.

With `CCN[C@@H](CC)CNC(=O)c1ccnc(-c2cnn3ccc(-c4cccs4)nc23)c1` [Example 30, (S)—N-(2-(ethylamino)butyl)-2-(5-(thiophen-2-yl)pyrazolo[1,5-a]pyrimidin-3-yl)isonicotinamide], the IC50 worked out at 3.67 nM.

`CCC(CNC(=O)c1ccnc(-c2cnn3ccc(-c4cccs4)nc23)c1)NC(C)C` (stereo not drawn) [Example 31, N-(2-(isopropylamino)butyl)-2-(5-(thiophen-2-yl)pyrazolo[1,5-a]pyrimidin-3-yl)isonicotinamide]: the IC50 was found to be 12.1 nM.

On to `CC(C)N[C@@H](C)CNC(=O)c1ccnc(-c2cnn3ccc(-c4cccs4)nc23)c1` [Example 32, (S)—N-(2-(isopropylamino)propyl)-2-(5-(thiophen-2-yl)pyrazolo[1,5-a]pyrimidin-3-yl)isonicotinamide], for which the IC50 is 18 nM.

For the molecule `CCN[C@H](C)CNC(=O)c1ccnc(-c2cnn3ccc(-c4cccs4)nc23)c1` [Example 33, (R)—N-(2-(ethylamino)propyl)-2-(5-(thiophen-2-yl)pyrazolo[1,5-a]pyrimidin-3-yl)isonicotinamide], the IC50 amounted to 8.44 nM.

Source of the values: patent publication US10100058B2, “Fused heterocyclic compounds as CaM kinase inhibitors” (Gilead Sciences, Inc., priority 2016, dated 2018).
